For series [1], the system named is Hemostatic Function. On the set-up: species or system baboon. As to conditions: in vivo. As for the experimental part:
After continuous infusion of a | given dose for 15 minutes (min.), the template bleeding time measurement | was begun and blood was drawn for thrombin time determinations. Escalatio | to the next dose was undertaken only after the bleeding time measurement | had been completed. The results are expressed as means ± one standard | deviation.

The nature of series [2]: Template bleeding time and platelet count in carotid endarterectomy study (Example 2B). The class given is in vivo, baboon. The note with it: treated animals, day 3. As for the experimental part:
[…] The mean platelet count was 318±70×10^3 /μl in the control group and 296±53×10^3 /μl in the treated group.
Bleeding time measurements were performed in duplicate on the shaved volar surface of the forearm, using the standard template method as previously described for studies in baboons. Harker et al., Blood, 58:824-834 (1980).

The nature of series [3]: Plasma levels of PPACK (antithrombin activity) in carotid endarterectomy study. The class given is in vivo, baboon. The note with it: iv.
Series [4] in a line: Blood and plasma determinations during dialyzer exposure (APTT, FPA, fibrinogen, cell counts, bleeding time, PF4, βTG, C3a). The class given is in vivo, baboon. As for the experimental part: PPACK or standard heparin (from porcine intestinal mucosal, Invenex Laboratories, Chagrin Falls, Ohio) was infused into the arterial limb of the vascular shunt immediately proximal to the dialyzer.
Blood cell counts (platelets, white blood cells, and red blood cells) were performed on disodium EDTA anticoagulated whole blood using a J. T. Baker whole blood analyzer Model 810 (Allentown, Pa.). Hanson et al., J. Clin. Invest. 75:1591-99 (1985); and Hanson et al., Arteriosclerosis, 5:595-603 (1985). Standard template bleeding times, were performed on the shave volar surface of the forearm in a manner as described in Harker et al., New. Eng. J. Med., 287:155-59 (1972) and Malpass et al., Blood, 57:736-40 (1981). Bleeding times were done in duplicate and averaged. Commercially available radioimmunometric assays were carried out to measure plasma levels of platelet factor 4 (PF4) (Abbott Laboratories, North Chicago, Ill.), β-thromboglobulin (βTG) (Amersham Corporation, Arlington Heights, Ill.), fibrinopeptide A (FPA) (MICRO USA Inc., New York, N.Y.) and activated complement C3 antigen (C3a) (Amersham Corp.). Blood samples for these plasma assays were collected, processed and determined as described in the procedures of Example 1 and in Malpass et al., ibid. and Hanson et al., Arterosclerosis, 5:595-603 (1985). […] (APTT) were performed using a standard method (Activated PTT reagent, Ortho Diagnostics, Raritain, N.J.). A fibrometer (Fibrosystem, Division of Becton and Dickinson and Co., Cockeysville, […].) was used for endpoint clot detection as described in Biggs, R., Human Blood Coagulation, Haemostasis and Thrombosis, Oxford, Blackwell Scientific, pages 657-750 (1976). Fibrinogen was determined by a total clottable protein method described by Jacobsson K., Scand. J. Clin. Lab. Invest., 7(Suppl. 14):9-54 (1955).

The nature of series [5]: Plasma activity levels of heparin (anti-Xa) and PPACK (antithrombin) during dialyzer study. The class given is in vivo, baboon. The note with it: for level at 0.5 h / level at 1 h: plasma, 100 nmol/kg per min, Plasma PPACK; for level at 0.5 h: 30 min; for level at 1 h: 60 min. As for the experimental part: Samples were centrifuged (2000×g, for 5 min) immediately after collection and the recovered plasma was frozen until assay. […] In some studies PPACK levels were determined at three sites: (i) systemic (ii) immediately proximal to the dialyzer but distal to the site of the PPACK infusion, and (iii) immediately distal to the dialyzer. Levels of heparin activity were determined by measuring the potentiating effect of heparin of plasma anti-Xa activity using a synthetic chromogenic substrate (Stachrom Heparin, Stago, France). Teien et al., Thrombo Research, 10:399-410 (1977).

Series [6] is described as follows: PPACK concentration in the plasma during infusion (graft study). The class given is in vivo, baboon. As to conditions: intravenous infusion at 100 nmol/kg/min (about 15 minutes). The text has this:
Methods for determining the concentration of a Formula (1) peptide in the plasma are well known in the art, a preferred method being that described by Collen et al., J. Lab. Clin. Med., 99:76-83 (1982), whose disclosures are incorporated herein by reference.

The conditions of series [7]: Collen et al., cited from earlier work.
The subject of series [8] is primate model of vascular graft thrombosis. As to conditions: aspirin 32.5 mg/kg/day orally 2 hours prior to graft placement; previous studies; cited from earlier work.

Data on two compounds can be found in patent US4929602A, “Method of inhibiting platelet dependent arterial thrombosis” (Scripps Clinic and Research Foundation, priority 1988, dated 1990).

On to `N=C(N)NCCC[C@H](NC(=O)[C@@H]1CCCN1C(=O)[C@H](N)Cc1ccccc1)C(=O)CCl` [PPACK, D-phenylalanyl-L-propyl-L-arginyl-chloromethyl ketone], for which the “effect on heart rate or blood pressure” value in series [1] was “No effect”. For the same compound, the values for the platelet count in series [1] and in series [4] (during dialyzer exposure) were 269 ± 54 × 10^9 /L and 401 ± 17 × 10^3 /μL, respectively. Besides, the Platelet counts in series [2] is reported as 296±53 ×10^3 /μl. In addition, the level at 1.5 h in series [3] (100 nmol/kg/min, 90 min after infusion) stood at 1120 ± 270 ng/mL. Further, the level at 0.5 h in series [3] (30 min after infusion, 100 nmol/kg/min for about 1 hour) amounted to 3720 ± 610 ng/mL; in series [5] (Postdialyzer) it was 3900 ± 500 ng/mL; in series [5] (Predialyzer), 3050 ± 550 ng/mL; in series [5] (Systemic) it was 1400 ± 400 ng/mL. In series [4] (during dialyzer use), this compound yielded a C3a peak level of 1989 ± 360 ng/mL. Moreover, the “white blood cell count, early fall” value in series [4] (during dialyzer use) is on record as 5,900±810 cells/ul. Moreover, the “PPACK systemic plasma level” value in series [5] (100 nmol/kg per min infused proximal to the dialyzer) is 1.5 ± 0.06 µg/mL. The level at 1 h in series [5] (Postdialyzer) came out at 4100 ± 1200 ng/mL; in series [5] (Predialyzer) it was 3650 ± 650 ng/mL; in series [5] (Systemic), 1600 ± 500 ng/mL. Moreover, the “PPACK concentration in the plasma” value in series [6] fell in the range of 1 to 2 µg/mL. In addition, the “T50 removal rate from the circulation” value in series [7] is “less than 3 min”. The “half-life of PPACK's ability to inhibit fibrin formation” value in series [7] (rabbits) is “about 2.9 minutes”.

As for `CC(=O)Oc1ccccc1C(=O)O` [aspirin], the “effect on vascular graft 111In-platelet deposition” value in series [8] was “neither aspirin (32.5 mg/kg/day given orally 2 hours prior to graft placement) not aspirin combined with heparin (100 units/kg) affected”.
